From PubChem BioAssay (NCI)
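Method: 48-hour compound exposure of cells in 96-well plates, five concentrations, linear interpolation of endpoints. Abbreviation: GI50, concentration required for 50% inhibition of growth. TGI denotes the concentration required for complete inhibition of growth.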

Columns and labels:
Test in all cases: inhibition of tumour cell growth, NCI panel, 48 h
NCI-H522 lung = system: NCI-H522 lung
OVCAR-5 ovarian = system: OVCAR-5 ovarian
SNB-75 CNS = system: SNB-75 CNS
SF-295 CNS = system: SF-295 CNS
UACC-257 melanoma = system: UACC-257 melanoma
HS 578T breast = system: HS 578T breast
T-47D breast = system: T-47D breast
SK-MEL-28 melanoma = system: SK-MEL-28 melanoma
MDA-MB-231 breast = system: MDA-MB-231 breast
SK-MEL-2 melanoma = system: SK-MEL-2 melanoma
OVCAR-4 ovarian = system: OVCAR-4 ovarian
COLO 205 colon = system: COLO 205 colon
EKVX NSCLC = system: EKVX NSCLC
OVCAR-3 ovarian = system: OVCAR-3 ovarian
MALME-3M melanoma = system: MALME-3M melanoma
NCI-H226 lung = system: NCI-H226 lung
TK-10 renal = system: TK-10 renal
HOP-92 NSCLC = system: HOP-92 NSCLC
SK-OV-3 ovarian = system: SK-OV-3 ovarian
CAKI-1 renal = system: CAKI-1 renal
HL-60(TB) leukemia = system: HL-60(TB) leukemia
SF-268 CNS = system: SF-268 CNS
NCI/ADR-RES ovarian = system: NCI/ADR-RES ovarian
K-562 leukemia = system: K-562 leukemia
MDA-MB-435 = system: MDA-MB-435
UACC-62 melanoma = system: UACC-62 melanoma
786-0 renal = system: 786-0 renal
A549 NSCLC = system: A549 NSCLC
NCI-H23 lung = system: NCI-H23 lung
HCC-2998 colon = system: HCC-2998 colon
MOLT-4 leukemia = system: MOLT-4 leukemia
HCT-116 colon = system: HCT-116 colon
UO-31 renal = system: UO-31 renal
SNB-19 CNS = system: SNB-19 CNS
PC-3 prostate = system: PC-3 prostate
ACHN renal = system: ACHN renal
CCRF-CEM leukemia = system: CCRF-CEM leukemia
LOX IMVI melanoma = system: LOX IMVI melanoma
U251 CNS = system: U251 CNS
SW-620 colon = system: SW-620 colon
DU-145 prostate = system: DU-145 prostate
OVCAR-8 ovarian = system: OVCAR-8 ovarian
MCF7 breast = system: MCF7 breast
HOP-62 NSCLC = system: HOP-62 NSCLC
A498 renal = system: A498 renal
SK-MEL-5 melanoma = system: SK-MEL-5 melanoma
BT-549 breast = system: BT-549 breast
M14 melanoma = system: M14 melanoma
RPMI-8226 leukemia = system: RPMI-8226 leukemia
SF-539 CNS = system: SF-539 CNS
KM12 colon = system: KM12 colon
IGROV1 ovarian = system: IGROV1 ovarian
SN12C renal = system: SN12C renal
HCT-15 colon = system: HCT-15 colon
NCI-H460 lung = system: NCI-H460 lung
RXF 393 renal = system: RXF 393 renal
HT29 colon = system: HT29 colon

Compound: COc1cc(/C=C/C(=O)c2ccc(O)c(OC)c2)ccc1O
- TGI (NCI-H522 lung): 32.3 µM
- TGI (OVCAR-5 ovarian): 50.8 µM
- TGI (SNB-75 CNS): 77.5 µM
- TGI (SF-295 CNS): 49 µM
- TGI (UACC-257 melanoma): 45.9 µM
- TGI (HS 578T breast): 60.3 µM
- TGI (T-47D breast): 58.7 µM
- TGI (SK-MEL-28 melanoma): 36.5 µM
- TGI (MDA-MB-231 breast): 79.4 µM
- TGI (SK-MEL-2 melanoma): 42.6 µM
- TGI (OVCAR-4 ovarian): 71.4 µM
- TGI (COLO 205 colon): 41.2 µM
- TGI (EKVX NSCLC): 41.6 µM
- TGI (OVCAR-3 ovarian): 72 µM
- TGI (MALME-3M melanoma): 51.4 µM
- TGI (NCI-H226 lung): 46.3 µM
- TGI (TK-10 renal): 87.9 µM
- TGI (HOP-92 NSCLC): 50.7 µM
- TGI (SK-OV-3 ovarian): 93.4 µM

Compound: Oc1ccc(Nc2ncnc3c2sc2ncccc23)cc1
- GI50 (CAKI-1 renal): < 0.0185 µM
- TGI (CAKI-1 renal): 9.21 µM
- GI50 (HL-60(TB) leukemia): 0.0288 µM
- TGI (HL-60(TB) leukemia): > 56.5 µM
- GI50 (SF-268 CNS): 0.0407 µM
- TGI (SF-268 CNS): > 100 µM
- GI50 (NCI/ADR-RES ovarian): 0.0286 µM
- TGI (NCI/ADR-RES ovarian): > 35.2 µM
- GI50 (K-562 leukemia): 0.36 µM
- TGI (K-562 leukemia): > 100 µM
- GI50 (NCI-H522 lung): 0.0369 µM
- TGI (NCI-H522 lung): > 100 µM
- GI50 (MDA-MB-435): 0.0403 µM
- TGI (MDA-MB-435): > 100 µM
- GI50 (UACC-62 melanoma): 0.0379 µM
- TGI (UACC-62 melanoma): 46.1 µM
- GI50 (OVCAR-5 ovarian): 0.0831 µM
- TGI (OVCAR-5 ovarian): > 100 µM
- GI50 (786-0 renal): < 0.01 µM
- GI50 (A549 NSCLC): 0.0164 µM
- TGI (A549 NSCLC): > 100 µM
- GI50 (SNB-75 CNS): 0.0595 µM
- TGI (SNB-75 CNS): 7.35 µM
- GI50 (NCI-H23 lung): < 0.01 µM
- TGI (NCI-H23 lung): 9.53 µM
- GI50 (HCC-2998 colon): > 33.3 µM
- TGI (HCC-2998 colon): > 100 µM
- GI50 (MOLT-4 leukemia): 0.0527 µM
- TGI (MOLT-4 leukemia): > 45.5 µM
- GI50 (HCT-116 colon): < 0.01 µM
- TGI (HCT-116 colon): > 100 µM
- GI50 (SF-295 CNS): 0.0389 µM
- TGI (SF-295 CNS): > 100 µM
- GI50 (UO-31 renal): 0.0241 µM
- TGI (UO-31 renal): 5.02 µM
- GI50 (SNB-19 CNS): 0.0246 µM
- TGI (SNB-19 CNS): > 100 µM
- GI50 (PC-3 prostate): 5.15 µM
- TGI (PC-3 prostate): > 100 µM
- GI50 (ACHN renal): < 0.01 µM
- TGI (ACHN renal): 1.42 µM
- GI50 (CCRF-CEM leukemia): 0.0307 µM
- TGI (CCRF-CEM leukemia): > 100 µM
- GI50 (LOX IMVI melanoma): 0.0368 µM
- TGI (LOX IMVI melanoma): > 100 µM
- GI50 (UACC-257 melanoma): 0.0726 µM
- TGI (UACC-257 melanoma): > 100 µM
- GI50 (U251 CNS): 0.0262 µM
- TGI (U251 CNS): > 100 µM
- GI50 (HS 578T breast): > 100 µM
- TGI (HS 578T breast): > 100 µM
- GI50 (SW-620 colon): 0.0824 µM
- TGI (SW-620 colon): > 100 µM
- GI50 (DU-145 prostate): 0.0369 µM
- TGI (DU-145 prostate): > 100 µM
- GI50 (OVCAR-8 ovarian): 0.0261 µM
- TGI (OVCAR-8 ovarian): > 30.9 µM
- GI50 (MCF7 breast): < 0.01 µM
- TGI (MCF7 breast): > 100 µM
- GI50 (HOP-62 NSCLC): 0.0175 µM
- GI50 (A498 renal): 0.0236 µM
- TGI (A498 renal): 1.93 µM
- GI50 (SK-MEL-5 melanoma): 0.047 µM
- TGI (SK-MEL-5 melanoma): > 100 µM
- GI50 (BT-549 breast): 0.0389 µM
- TGI (BT-549 breast): > 100 µM
- GI50 (SK-MEL-28 melanoma): 3.75 µM
- TGI (SK-MEL-28 melanoma): > 100 µM
- GI50 (M14 melanoma): 0.012 µM
- TGI (M14 melanoma): 0.0551 µM
- GI50 (MDA-MB-231 breast): > 100 µM
- TGI (MDA-MB-231 breast): > 100 µM
- GI50 (RPMI-8226 leukemia): 0.0485 µM
- TGI (RPMI-8226 leukemia): > 100 µM
- GI50 (SK-MEL-2 melanoma): 27.3 µM
- TGI (SK-MEL-2 melanoma): > 100 µM
- GI50 (SF-539 CNS): 0.0266 µM
- TGI (SF-539 CNS): 0.293 µM
- GI50 (OVCAR-4 ovarian): > 88.7 µM
- TGI (OVCAR-4 ovarian): > 100 µM
- GI50 (COLO 205 colon): 0.0726 µM
- GI50 (EKVX NSCLC): 0.097 µM
- TGI (EKVX NSCLC): > 100 µM
- GI50 (OVCAR-3 ovarian): 0.397 µM
- TGI (OVCAR-3 ovarian): > 100 µM
- GI50 (MALME-3M melanoma): 4.93 µM
- TGI (MALME-3M melanoma): > 100 µM
- GI50 (KM12 colon): 1.73 µM
- TGI (KM12 colon): > 100 µM
- GI50 (NCI-H226 lung): 0.352 µM
- TGI (NCI-H226 lung): > 100 µM
- GI50 (IGROV1 ovarian): > 23.8 µM
- TGI (IGROV1 ovarian): > 100 µM
- GI50 (SN12C renal): 0.244 µM
- TGI (SN12C renal): > 100 µM
- GI50 (HCT-15 colon): 0.088 µM
- TGI (HCT-15 colon): > 100 µM
- GI50 (TK-10 renal): > 100 µM
- TGI (TK-10 renal): > 100 µM
- GI50 (NCI-H460 lung): < 0.01 µM
- TGI (NCI-H460 lung): > 100 µM
- GI50 (HOP-92 NSCLC): 0.08 µM
- TGI (HOP-92 NSCLC): 11.6 µM
- GI50 (SK-OV-3 ovarian): 0.168 µM
- TGI (SK-OV-3 ovarian): > 40.2 µM
- GI50 (RXF 393 renal): 0.071 µM
- TGI (RXF 393 renal): 97 µM
- GI50 (HT29 colon): 0.0496 µM
- TGI (HT29 colon): > 100 µM
